Drawing on patent US20150133426A1, “SUBSTITUTED PYRROLOPYRIMIDINES” (BAYER PHARMA AKTIENGESELLSCHAFT, priority 2012, published 2015), this text covers IC50 for 34 molecules.

As usually defined, the IC50 is the concentration that inhibits the measured activity by half.

SMILES strings stand for the structures.

T1 sequence (Q9BUB5 1-424 isoform Q9BUB5-2 T344D): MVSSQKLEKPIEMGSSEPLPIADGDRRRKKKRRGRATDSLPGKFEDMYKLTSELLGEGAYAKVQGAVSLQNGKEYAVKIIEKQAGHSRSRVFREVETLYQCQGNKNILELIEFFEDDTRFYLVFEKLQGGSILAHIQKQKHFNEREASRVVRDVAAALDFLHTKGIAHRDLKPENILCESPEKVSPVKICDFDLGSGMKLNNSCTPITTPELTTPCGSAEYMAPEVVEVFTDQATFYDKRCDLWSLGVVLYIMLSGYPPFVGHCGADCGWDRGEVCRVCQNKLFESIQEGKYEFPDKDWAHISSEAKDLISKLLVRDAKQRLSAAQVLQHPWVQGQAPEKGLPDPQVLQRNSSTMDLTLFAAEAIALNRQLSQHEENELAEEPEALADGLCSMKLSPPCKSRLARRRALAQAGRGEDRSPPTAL

The test has as its target T1, human full-length MKNK1 (Homo sapiens, UniProt Q9BUB5, T385D).
T1 construct: purchased Carna Biosciences 02-145; host or cells: insect cells, baculovirus expression system
Nature of the test: MKNK1 kinase high ATP assay (TR-FRET). It counts as biochemical. Conditions: high ATP (2 mM), 15 min preincubation with enzyme, GST-MKNK1 (T344D). In a few lines:
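GST-tagged full-length human MKNK1 (aa 1-424, T344D), baculovirus-expressed, preincubated 15 min with compound, then reacted 30 min at 22 °C with 2 mM ATP and 0.06 µM biotinylated peptide (final).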
In general terms: Time-resolved FRET reads energy transfer from a long-lived donor to a nearby acceptor.
In turn, `c1nc(Nc2ccc3[nH]ncc3c2)c2c3c([nH]c2n1)CCC3` [Example 69, N-(1H-Indazol-5-yl)-5,6,7,8-tetrahydrocyclopenta[4,5]pyrrolo[2,3-d]pyrimidin-4-amine] showed an IC50 of 507 nM.
`COc1cc(NS(C)(=O)=O)ccc1Nc1ncnc2[nH]c3c(c12)CCCC3` [Example 129] displayed an IC50 of 4050 nM.
Regarding `CS(=O)(=O)CCCNC(=O)C1CCc2[nH]c3ncnc(Nc4ccccc4OC4CCOC4)c3c2C1` (racemic) [Example 167, (RS)—N-[3-(Methylsulfonyl)propyl]-4-{[2-(tetrahydrofuran-3-yloxy)phenyl]amino}-6,7,8,9-tetrahydro-5H-pyrimido[4,5-b]indole-6-carboxamide], inhibition was half-maximal at 70 nM (IC50).
Under `c1ccc(N2CCOCC2)c(Nc2ncnc3[nH]c4c(c23)CCCC4)c1` [Example 118] stands ≥ 20000 nM; under `COc1ccc(F)cc1Nc1ncnc2[nH]c3c(c12)CC(C(=O)NC1CC1)CC3` (racemic) [Example 197, (RS)—N-Cyclopropyl-4-[(5-fluoro-2-methoxyphenyl)amino]-6,7,8,9-tetrahydro-5H-pyrimido[4,5-b]indole-6-carboxamide], 188 nM.
Under `CS(=O)(=O)CCCNC(=O)C1CCc2[nH]c3ncnc(N4CCc5ccccc54)c3c2C1` (racemic) [Example 168, (RS)-4-(2,3-Dihydro-1H-indol-1-yl)-N-[3-(methylsulfonyl)propyl]-6,7,8,9-tetrahydro-5H-pyrimido[4,5-b]indole-6-carboxamide] stands 803 nM.
Next, `CS(=O)(=O)CCCNC(=O)C1CCc2[nH]c3ncnc(Nc4ccc(S(N)(=O)=O)cc4)c3c2C1` (racemic) [Example 48, (RS)—N-[3-(Methylsulfonyl)propyl]-4-[(4-sulfamoylphenyl)amino]-6,7,8,9-tetrahydro-5H-pyrimido[4,5-b]indole-6-carboxamide]: 2840 nM.
In turn, `O=c1[nH]c2ccc(Nc3ncnc4[nH]c5c(c34)CC(F)(F)CC5)cc2s1` [Example 142] displayed an IC50 of 38 nM.
Next, `CCOC(=O)C1CCc2[nH]c3ncnc(Nc4ccc(F)cc4OC(C)C)c3c2C1` (racemic) [Example 174, (RS)-Ethyl 4-{[4-fluoro-2-(propan-2-yloxy)phenyl]amino}-6,7,8,9-tetrahydro-5H-pyrimido[4,5-b]indole-6-carboxylate]: 706 nM.
Under `COc1cc(Cl)c(Cl)cc1Nc1ncnc2[nH]c3c(c12)CC(C(=O)NC(C)C)CC3` (racemic) [Example 226, (RS)-4-[(4,5-Dichloro-2-methoxyphenyl)amino]-N-(propan-2-yl)-6,7,8,9-tetrahydro-5H-pyrimido[4,5-b]indole-6-carboxamide] stands 19 nM; under `CN(C)C(=O)C1CCc2[nH]c3ncnc(Nc4ccccc4OC4CCCC4)c3c2C1` (racemic) [Example 188, (RS)-4-{[2-(Cyclopentyloxy)phenyl]amino}-N,N-dimethyl-6,7,8,9-tetrahydro-5H-pyrimido[4,5-b]indole-6-carboxamide], 710 nM; under `CC(C)NC(=O)C1CCc2[nH]c3ncnc(Nc4ccc(F)cc4OC(C)C)c3c2C1` (racemic) [Example 223, (RS)-4-{[4-Fluoro-2-(propan-2-yloxy)phenyl]amino}-N-(propan-2-yl)-6,7,8,9-tetrahydro-5H-pyrimido[4,5-b]indole-6-carboxamide], 53 nM.
Next, `O=C(O)C1CCc2[nH]c3ncnc(Nc4cc5[nH]c(=O)[nH]c5cc4Cl)c3c2C1` (racemic) [Example 237, (RS)-4-[(6-Chloro-2-oxo-2,3-dihydro-1H-benzimidazol-5-yl)amino]-6,7,8,9-tetrahydro-5H-pyrimido[4,5-b]indole-6-carboxylic acid]: 12300 nM; `COc1ccc(Cl)cc1Nc1ncnc2[nH]c3c(c12)CC(F)(F)CC3` [Example 144]: ≥ 20000 nM; `Cc1ccc(Nc2ncnc3[nH]c4c(c23)CC(C(=O)NCCCS(C)(=O)=O)CC4)c(OC(F)F)c1` (racemic) [Example 156, (RS)-4-{[2-(Difluoromethoxy)-4-methylphenyl]amino}-N-[3-(methylsulfonyl)propyl]-6,7,8,9-tetrahydro-5H-pyrimido[4,5-b]indole-6-carboxamide]: ≥ 20000 nM.
As for `COc1ccc(F)cc1Nc1ncnc2[nH]c3c(c12)CC(C(=O)O)CC3` (racemic) [Example 181, (RS)-4-[(5-Fluoro-2-methoxyphenyl)amino]-6,7,8,9-tetrahydro-5H-pyrimido[4,5-b]indole-6-carboxylic acid], the IC50 stood at 1100 nM.
As to `COc1cc(Cl)c(Cl)cc1Nc1ncnc2[nH]c3c(c12)CC(C(=O)O)CC3` (racemic) [Example 18, (RS)-4-[(4,5-Dichloro-2-methoxyphenyl)amino]-6,7,8,9-tetrahydro-5H-pyrimido[4,5-b]indole-6-carboxylic acid], the IC50 was determined as 24 nM.
Next, `CN1CCN(C(=O)C2CCc3[nH]c4ncnc(Nc5ccccc5OC5CCCC5)c4c3C2)CC1` (racemic) [Example 192, (RS)-(4-{[2-(Cyclopentyloxy)phenyl]amino}-6,7,8,9-tetrahydro-5H-pyrimido[4,5-b]indol-6-yl)(4-methylpiperazin-1-yl)methanone]: 181 nM.
Next, `CS(=O)(=O)CCCNC(=O)C1CCc2[nH]c3ncnc(Nc4ccc5c(c4)OCC(=O)N5)c3c2C1` (racemic) [Example 51, (RS)—N-[3-(Methylsulfonyl)propyl]-4-[(3-oxo-3,4-dihydro-2H-1,4-benzoxazin-7-yl)amino]-6,7,8,9-tetrahydro-5H-pyrimido[4,5-b]indole-6-carboxamide]: 370 nM; `CS(=O)(=O)CCCNC(=O)C1CCc2[nH]c3ncnc(Nc4cc(OC(F)(F)F)ccc4F)c3c2C1` (racemic) [Example 62, (RS)-4-{[2-Fluoro-5-(trifluoromethoxy)phenyl]amino}-N-[3-(methylsulfonyl)propyl]-6,7,8,9-tetrahydro-5H-pyrimido[4,5-b]indole-6-carboxamide]: 677 nM.
The molecule `COc1cc2[nH]ncc2cc1Nc1ncnc2[nH]c3c(c12)CC(C(=O)NCc1ccccc1)CC3` (racemic) [Example 219, (RS)—N-Benzyl-4-[(6-methoxy-1H-indazol-5-yl)amino]-6,7,8,9-tetrahydro-5H-pyrimido[4,5-b]indole-6-carboxamide] had an IC50 of 1 nM.
Under `CS(=O)(=O)CCCNC(=O)C1CCc2[nH]c3ncnc(Nc4ccc(F)cc4OCCO)c3c2C1` (racemic) [Example 159, (RS)-4-{[4-Fluoro-2-(2-hydroxyethoxy)phenyl]amino}-N-[3-(methylsulfonyl)propyl]-6,7,8,9-tetrahydro-5H-pyrimido[4,5-b]indole-6-carboxamide] stands 36 nM; under `O=C(NC1CC1)C1CCc2[nH]c3ncnc(Nc4ccccc4N4CCOCC4)c3c2C1` (racemic) [Example 203, (RS)—N-Cyclopropyl-4-{[2-(morpholin-4-yl)phenyl]amino}-6,7,8,9-tetrahydro-5H-pyrimido[4,5-b]indole-6-carboxamide], 175 nM; under `COc1ccc(Cl)cc1Nc1ncnc2[nH]c3c(c12)CC(C(=O)NC(C)C)CC3` (racemic) [Example 224, (RS)-4-[(5-Chloro-2-methoxyphenyl)amino]-N-(propan-2-yl)-6,7,8,9-tetrahydro-5H-pyrimido[4,5-b]indole-6-carboxamide], 40 nM.
As for `O=[N+]([O-])c1ccc2c(c1)N(c1ncnc3[nH]c4c(c13)CCCC4)CC2` [Example 121], the IC50 is ≥ 20000 nM.
The molecule `CC(C)Oc1cc(F)ccc1Nc1ncnc2[nH]c3c(c12)CC(F)(F)CC3` [Example 9, 6,6-Difluoro-N-(4-fluoro-2-isopropoxyphenyl)-6,7,8,9-tetrahydro-5H-pyrimido[4,5-b]indol-4-amine] showed an IC50 of 85 nM.
As for `Nc1ccc2c(c1)N(c1ncnc3[nH]c4c(c13)CCCC4)CC2` [Example 111], the midpoint of inhibition, the IC50, lay at 1100 nM. This IC50 is about 13-fold higher than that of the molecule before.
Next, `O=C(Nc1ccccc1)C1CCc2[nH]c3ncnc(Nc4ccccc4N4CCOCC4)c3c2C1` (racemic) [Example 205, (RS)-4-{[2-(Morpholin-4-yl)phenyl]amino}-N-phenyl-6,7,8,9-tetrahydro-5H-pyrimido[4,5-b]indole-6-carboxamide]: 242 nM.
Under `CCOC(=O)C1CCc2[nH]c3ncnc(Nc4ccccc4OC4CCCC4)c3c2C1` (racemic) [Example 170, (RS)-Ethyl 4-{[2-(cyclopentyloxy)phenyl]amino}-6,7,8,9-tetrahydro-5H-pyrimido[4,5-b]indole-6-carboxylate] stands 1900 nM; under `COCC1(OC)CCc2[nH]c3ncnc(Nc4cc(Cl)ccc4OC(C)C)c3c2C1` (racemic) [Example 132], 503 nM; under `COc1ccc(C(F)(F)F)cc1Nc1ncnc2[nH]c3c(c12)CC(F)(F)CC3` [Example 145], ≥ 20000 nM.
Next, `COc1ccc(F)cc1Nc1ncnc2[nH]c3c(c12)CC(C(=O)N1CCN(C)CC1)CC3` (racemic) [Example 196, (RS)-{4-[(5-Fluoro-2-methoxyphenyl)amino]-6,7,8,9-tetrahydro-5H-pyrimido[4,5-b]indol-6-yl}(4-methylpiperazin-1-yl)methanone]: 115 nM; `CS(=O)(=O)CCCNC(=O)C1CCc2[nH]c3ncnc(Nc4ccc(F)c5[nH]c(=O)ccc45)c3c2C1` (racemic) [Example 82, (RS)-4-[(8-Fluoro-2-oxo-1,2-dihydroquinolin-5-yl)amino]-N-[3-(methylsulfonyl)propyl]-6,7,8,9-tetrahydro-5H-pyrimido[4,5-b]indole-6-carboxamide]: 10500 nM; `COc1ccc(F)cc1Nc1ncnc2[nH]c3c(c12)CC(C(=O)NC(C)C)CC3` (racemic) [Example 195, (RS)-4-[(5-Fluoro-2-methoxyphenyl)amino]-N-(propan-2-yl)-6,7,8,9-tetrahydro-5H-pyrimido[4,5-b]indole-6-carboxamide]: 123 nM.
